In ChEMBL document CHEMBL1909046, “DrugMatrix in vitro pharmacology data” one finds IC50 and Ki data, which are given here for 16 compounds.

The target of one series is T1, Calcitonin receptor (Homo sapiens, UniProt P30988). Further: in other assays of this panel Not Active means under 50% inhibition at 10 µM.
T1 sequence (P30988 whole entry): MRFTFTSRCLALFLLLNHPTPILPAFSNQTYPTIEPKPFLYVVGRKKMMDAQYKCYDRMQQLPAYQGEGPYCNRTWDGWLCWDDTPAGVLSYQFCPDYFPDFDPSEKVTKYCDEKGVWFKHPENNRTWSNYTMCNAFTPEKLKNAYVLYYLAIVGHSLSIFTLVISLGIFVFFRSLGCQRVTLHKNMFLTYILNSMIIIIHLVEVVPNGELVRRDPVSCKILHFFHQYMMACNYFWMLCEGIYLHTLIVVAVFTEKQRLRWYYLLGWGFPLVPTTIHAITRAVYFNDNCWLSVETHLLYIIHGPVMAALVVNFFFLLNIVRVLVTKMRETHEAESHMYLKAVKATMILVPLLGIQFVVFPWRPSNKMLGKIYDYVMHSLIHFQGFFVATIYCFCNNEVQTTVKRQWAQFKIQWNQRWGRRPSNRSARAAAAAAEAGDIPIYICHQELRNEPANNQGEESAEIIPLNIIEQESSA
The format is cell membranes, Membrane. The conditions noted are these: t47d.

In the next series the target is Substance-P receptor (Homo sapiens, UniProt P25103). The format is cell membranes, CHO, Membrane. To be noted: cho. Further: in other assays of this panel Not Active means under 50% inhibition at 10 µM.
For another series, the target named is Cannabinoid receptor 1 (Homo sapiens, UniProt P21554). It counts as cell membranes, Membrane. The conditions noted are these: chem-1. Further: in other assays of this panel Not Active means under 50% inhibition at 10 µM.
Series [1] in a line: DRUGMATRIX: Glutamate, Kainate radioligand binding (ligand: [3H] Kainic acid). The format is cell membranes, Rattus norvegicus, Wistar, Brain, Membrane. To be noted: Not Active = under 50% inhibition at 10 µM.
In series [2] the target is Mitogen-activated protein kinase 1 (Homo sapiens, UniProt P28482). Description: DRUGMATRIX: Protein Serine/Threonine Kinase, ERK2 enzyme inhibition (substrate: Myelin Basic Protein). The arrangement: species or system Escherichia coli. To be noted: Not Active = under 50% inhibition at 10 µM.
The next series has as its target T2, Androgen receptor (Rattus norvegicus, UniProt P15207). Further: in other assays of this panel Not Active means under 50% inhibition at 10 µM.
T2 sequence (P15207 whole entry): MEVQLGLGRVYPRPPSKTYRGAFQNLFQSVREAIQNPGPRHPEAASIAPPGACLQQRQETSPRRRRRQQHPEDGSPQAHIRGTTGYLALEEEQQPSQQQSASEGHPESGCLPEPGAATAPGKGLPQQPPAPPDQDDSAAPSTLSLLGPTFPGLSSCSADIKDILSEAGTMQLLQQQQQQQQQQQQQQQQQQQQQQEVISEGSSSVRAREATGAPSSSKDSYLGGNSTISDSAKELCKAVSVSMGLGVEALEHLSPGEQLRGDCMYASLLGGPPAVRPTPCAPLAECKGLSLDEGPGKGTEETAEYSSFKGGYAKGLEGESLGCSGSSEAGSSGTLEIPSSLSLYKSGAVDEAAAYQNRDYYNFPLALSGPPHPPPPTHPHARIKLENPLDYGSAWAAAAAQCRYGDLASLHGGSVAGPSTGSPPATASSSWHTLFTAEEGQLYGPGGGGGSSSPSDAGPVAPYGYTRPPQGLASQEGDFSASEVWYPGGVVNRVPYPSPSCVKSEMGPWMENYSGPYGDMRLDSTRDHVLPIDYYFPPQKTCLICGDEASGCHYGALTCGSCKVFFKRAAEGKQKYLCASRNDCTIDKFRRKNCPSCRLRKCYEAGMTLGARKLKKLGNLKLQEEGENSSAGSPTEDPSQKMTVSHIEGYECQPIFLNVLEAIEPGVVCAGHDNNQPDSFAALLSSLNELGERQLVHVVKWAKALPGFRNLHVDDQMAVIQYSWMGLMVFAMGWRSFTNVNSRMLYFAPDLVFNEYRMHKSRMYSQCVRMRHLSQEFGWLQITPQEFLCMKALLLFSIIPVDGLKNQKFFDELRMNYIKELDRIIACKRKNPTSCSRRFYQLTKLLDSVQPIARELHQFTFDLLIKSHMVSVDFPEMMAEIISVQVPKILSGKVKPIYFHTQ

For the next series, the target named is Cytochrome P450 2E1 (Homo sapiens, UniProt P05181). The conditions noted are these: bti-tn-5b1-4. Further: in other assays of this panel Not Active means under 50% inhibition at 10 µM.

*1 amine or outer side, *2 acyl side, *3 side chain or, on linkers, in order; H or OH if unused. Where a SMILES comes first, the peptide text is derived from it. Bridges are numbered along the chain shown (N, C = ends). Roman numbers before positions name the chains, in order. [ ]: non-standard residue; d: D form. Actinocin(1to9) = Cc1c2oc3c(C)ccc(C(=O)[*:2])c3nc-2c(C(=O)[*:1])c(N)c1=O; NMeV = CN[C@H](C(=O)O)C(C)C; Sar = CNCC(=O)O

Sequence of Mitogen-activated protein kinase 1 (P28482 whole entry): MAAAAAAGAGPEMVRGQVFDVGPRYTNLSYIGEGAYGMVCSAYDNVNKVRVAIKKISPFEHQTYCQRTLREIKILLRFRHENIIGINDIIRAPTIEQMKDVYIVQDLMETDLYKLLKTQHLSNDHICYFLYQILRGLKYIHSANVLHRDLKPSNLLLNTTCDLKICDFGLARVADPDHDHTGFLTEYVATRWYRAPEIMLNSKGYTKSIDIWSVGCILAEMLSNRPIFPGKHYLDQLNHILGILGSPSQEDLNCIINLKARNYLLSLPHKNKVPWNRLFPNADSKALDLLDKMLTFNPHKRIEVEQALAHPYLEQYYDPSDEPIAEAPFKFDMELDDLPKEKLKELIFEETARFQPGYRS
Sequence of Substance-P receptor (P25103 whole entry): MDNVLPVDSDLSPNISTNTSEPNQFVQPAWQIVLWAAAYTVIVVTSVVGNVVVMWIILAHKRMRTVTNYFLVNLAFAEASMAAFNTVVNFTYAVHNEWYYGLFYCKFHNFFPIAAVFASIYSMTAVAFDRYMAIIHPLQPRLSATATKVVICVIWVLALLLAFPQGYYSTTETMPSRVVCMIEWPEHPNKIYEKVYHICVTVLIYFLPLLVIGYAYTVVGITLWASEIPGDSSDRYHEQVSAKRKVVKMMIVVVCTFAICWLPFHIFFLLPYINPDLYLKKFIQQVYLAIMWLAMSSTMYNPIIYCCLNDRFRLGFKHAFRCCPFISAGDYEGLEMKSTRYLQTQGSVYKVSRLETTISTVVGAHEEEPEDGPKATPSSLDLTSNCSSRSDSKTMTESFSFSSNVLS
Sequence of Cannabinoid receptor 1 (P21554 whole entry): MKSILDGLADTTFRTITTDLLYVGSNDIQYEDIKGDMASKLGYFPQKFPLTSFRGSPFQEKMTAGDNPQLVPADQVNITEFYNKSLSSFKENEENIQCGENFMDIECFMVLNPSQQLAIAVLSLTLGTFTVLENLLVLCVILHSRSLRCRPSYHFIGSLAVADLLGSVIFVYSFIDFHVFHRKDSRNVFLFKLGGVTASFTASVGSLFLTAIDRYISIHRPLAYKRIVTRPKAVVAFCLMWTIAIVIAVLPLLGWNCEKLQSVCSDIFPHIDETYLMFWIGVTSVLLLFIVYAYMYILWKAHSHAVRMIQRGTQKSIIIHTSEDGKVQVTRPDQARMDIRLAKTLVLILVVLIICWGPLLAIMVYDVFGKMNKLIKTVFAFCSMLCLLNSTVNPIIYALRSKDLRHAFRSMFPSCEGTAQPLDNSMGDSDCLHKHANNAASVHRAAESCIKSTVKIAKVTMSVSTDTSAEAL
Sequence of Cytochrome P450 2E1 (P05181 whole entry): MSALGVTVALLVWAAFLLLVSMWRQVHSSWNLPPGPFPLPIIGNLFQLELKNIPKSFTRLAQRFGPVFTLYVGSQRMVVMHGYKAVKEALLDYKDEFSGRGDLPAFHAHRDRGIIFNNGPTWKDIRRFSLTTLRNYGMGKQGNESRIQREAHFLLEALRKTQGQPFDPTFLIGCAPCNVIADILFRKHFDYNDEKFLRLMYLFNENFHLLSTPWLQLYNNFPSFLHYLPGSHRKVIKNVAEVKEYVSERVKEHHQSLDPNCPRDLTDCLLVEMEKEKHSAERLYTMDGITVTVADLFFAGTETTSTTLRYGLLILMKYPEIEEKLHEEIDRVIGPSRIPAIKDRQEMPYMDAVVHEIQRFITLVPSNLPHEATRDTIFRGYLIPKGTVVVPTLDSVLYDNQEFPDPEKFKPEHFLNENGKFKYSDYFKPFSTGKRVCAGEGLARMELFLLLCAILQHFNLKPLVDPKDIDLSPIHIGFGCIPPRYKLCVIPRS

One may read the IC50 as the concentration at which inhibition is half-maximal. As to `COc1ccc(C[C@H]2NC[C@H](O)[C@H]2OC(C)=O)cc1` [ANISOMYCIN], the IC50 result (at Calcitonin receptor; against Substance-P receptor; against Cannabinoid receptor 1; in series [1]; in series [2]; against Androgen receptor) was “Not Active” throughout. Besides, at Cytochrome P450 2E1, the IC50 result was “Not Active”. Further, the Ki entry (on Calcitonin receptor; on Substance-P receptor; at Cannabinoid receptor 1; in series [1]; in series [2]; on Androgen receptor) was “Not Active” throughout. Moreover, the Ki result on Cytochrome P450 2E1 is listed as “Not Active”.

As to `Cc1onc(O)c1CC(N)C(=O)O` (racemic) [(R,S)-AMPA], the IC50 entry (at Calcitonin receptor; on Substance-P receptor; against Cannabinoid receptor 1; in series [1]; in series [2]; at Androgen receptor) was “Not Active” in each case. Besides, the IC50 result against Cytochrome P450 2E1 is listed as “Not Active”. Moreover, the Ki result (in series [1]; at Cytochrome P450 2E1) was “Not Active” throughout.

Regarding `Nc1ncn([C@@H]2O[C@H](CO)[C@@H](O)[C@H]2O)c(=O)n1` [AZACITIDINE], the IC50 result (at Calcitonin receptor; at Substance-P receptor; against Cannabinoid receptor 1; in series [1]; in series [2]; against Androgen receptor) was “Not Active” each time. For the same compound, the concentration for half-maximal inhibition (IC50) entry against Cytochrome P450 2E1 is on record as “Not Active”. For the same compound, the Ki entry (in series [1]; at Cytochrome P450 2E1) was “Not Active” each time.

As to LEAD (II) ACETATE, the IC50 result (on Calcitonin receptor; at Substance-P receptor; at Cannabinoid receptor 1; in series [1]; in series [2]; against Androgen receptor) was “Not Active” each time. Besides, the concentration for half-maximal inhibition (IC50) entry against Cytochrome P450 2E1 is recorded as “Not Active”. Moreover, the Ki result (on Calcitonin receptor; at Substance-P receptor; at Cannabinoid receptor 1; in series [1]; in series [2]; at Androgen receptor) was “Not Active” in each case. Moreover, the Ki entry on Cytochrome P450 2E1 is listed as “Not Active”.

On to `Cc1c2oc3c(C)ccc(C(=O)N[C@@H]4C(=O)N[C@H](C(C)C)C(=O)N5CCC[C@H]5C(=O)N(C)CC(=O)N(C)[C@@H](C(C)C)C(=O)O[C@@H]4C)c3nc-2c(C(=O)N[C@@H]2C(=O)N[C@H](C(C)C)C(=O)N3CCC[C@H]3C(=O)N(C)CC(=O)N(C)[C@@H](C(C)C)C(=O)O[C@@H]2C)c(N)c1=O` [DACTINOMYCIN] (I: T[dV]P[Sar][NMeV] / II: T[dV]P[Sar][NMeV]; ester I:1-I:C, II:1-II:C; linker I:N-II:N via Actinocin(1to9)), for which the IC50 result (at Calcitonin receptor; against Substance-P receptor; on Cannabinoid receptor 1; in series [1]; in series [2]; on Androgen receptor) was “Not Active” each time. Also, the IC50 entry against Cytochrome P450 2E1 is on record as “Not Active”. Moreover, the Ki entry (in series [1]; on Cytochrome P450 2E1) was “Not Active” in each case.

As to `NC(=O)N1c2ccccc2CCc2ccccc21`, the IC50 entry (on Calcitonin receptor; against Substance-P receptor; at Cannabinoid receptor 1; in series [1]; in series [2]; on Androgen receptor) was “Not Active” in each case. For the same compound, at Cytochrome P450 2E1, the IC50 result is given as “Not Active”. Besides, the Ki result (in series [1]; on Cytochrome P450 2E1) was “Not Active” throughout.

Turning to LIPOPOLYSACCHARIDE E. COLI O55:B5, the half-inhibitory concentration (IC50) entry at Calcitonin receptor was “Not Active”; against Substance-P receptor it was “Not Active”; at Cannabinoid receptor 1, “Not Active”; in series [1], “Not Active”; in series [2] (read-out: IC50), 0.321 µM; against Androgen receptor, “Not Active”. Moreover, on Cytochrome P450 2E1, the IC50 result is recorded as “Not Active”. For the same compound, the Ki result (on Calcitonin receptor; on Substance-P receptor; on Cannabinoid receptor 1; in series [1]; at Androgen receptor; on Cytochrome P450 2E1) was “Not Active” each time.

Consider `Nc1c(Br)cc(Br)cc1CN[C@H]1CC[C@H](O)CC1` [AMBROXOL], for which the 50% inhibitory concentration (IC50) entry (on Calcitonin receptor; on Substance-P receptor; at Cannabinoid receptor 1; in series [1]; in series [2]; on Androgen receptor) was “Not Active” throughout. In addition, the Ki result in series [1] is “Not Active”.

Consider `CC(C)(C)NCC(O)c1cc(Cl)c(N)c(Cl)c1` (stereo not given) [CLENBUTEROL], for which the half-maximal inhibitory concentration (IC50) result (on Calcitonin receptor; at Substance-P receptor; against Cannabinoid receptor 1; in series [1]; in series [2]; against Androgen receptor) was “Not Active” in each case. Also, at Cytochrome P450 2E1, the IC50 entry is recorded as “Not Active”. Besides, the Ki result (in series [1]; on Cytochrome P450 2E1) was “Not Active” throughout.

On to `CCOc1ccc(NC(C)=O)cc1` [PHENACETIN], for which the IC50 result (at Calcitonin receptor; against Substance-P receptor; against Cannabinoid receptor 1; in series [1]; in series [2]; against Androgen receptor) was “Not Active” in each case. For the same compound, the IC50 entry on Cytochrome P450 2E1 was “Not Active”. The Ki entry (in series [1]; at Cytochrome P450 2E1) was “Not Active” throughout.

Consider `CNCCc1ccccn1` [BETAHISTINE], for which the IC50 result (on Calcitonin receptor; on Substance-P receptor; against Cannabinoid receptor 1; in series [1]; in series [2]; against Cytochrome P450 2E1) was “Not Active” throughout. Moreover, the Ki result (in series [1]; on Cytochrome P450 2E1) was “Not Active” in each case.

For `COc1cc2nc(N3CCN(C(=O)C4COc5ccccc5O4)CC3)nc(N)c2cc1OC` (stereo not given) [DOXAZOSIN], the half-maximal inhibitory concentration (IC50) result (at Calcitonin receptor; on Substance-P receptor; against Cannabinoid receptor 1; in series [1]; in series [2]; on Cytochrome P450 2E1) was “Not Active” in each case. Besides, the Ki result (in series [1]; at Cytochrome P450 2E1) was “Not Active” each time.

Turning to `Clc1cccc(Cl)c1NC1=NCCN1` [CLONIDINE], the IC50 result (on Calcitonin receptor; against Substance-P receptor; on Cannabinoid receptor 1; in series [1]; in series [2]; at Cytochrome P450 2E1) was “Not Active” throughout. Also, the Ki result (in series [1]; on Cytochrome P450 2E1) was “Not Active” each time.

Turning to `CC(C)(Oc1ccc(Cl)cc1)C(=O)O` [CLOFIBRIC ACID], the half-maximal inhibitory concentration (IC50) entry (on Calcitonin receptor; on Substance-P receptor; at Cannabinoid receptor 1; in series [1]; in series [2]; at Cytochrome P450 2E1) was “Not Active” throughout. Also, the Ki entry (in series [1]; on Cytochrome P450 2E1) was “Not Active” throughout.

On to `OC(Cn1cncn1)(Cn1cncn1)c1ccc(F)cc1F` [FLUCONAZOLE], for which the IC50 entry (on Calcitonin receptor; against Substance-P receptor; against Cannabinoid receptor 1; in series [1]; in series [2]; against Cytochrome P450 2E1) was “Not Active” each time. Moreover, the Ki result (in series [1]; at Cytochrome P450 2E1) was “Not Active” in each case.

Consider `O=C1CC[C@@H](N2C(=O)c3ccccc3C2=O)C(=O)N1`, for which the IC50 result (at Calcitonin receptor; on Substance-P receptor; at Cannabinoid receptor 1; in series [1]; in series [2]; on Cytochrome P450 2E1) was “Not Active” throughout. The Ki result (in series [1]; on Cytochrome P450 2E1) was “Not Active” throughout.
